Measurements reported in ChEMBL document CHEMBL3091452, “A prodrug approach toward cancer-related carbonic anhydrase inhibition” (J Med Chem, 2013).

What was measured:
[1] = target: Carbonic anhydrase 9 (Homo sapiens, UniProt Q16790)
Description: Inhibition of human carbonic anhydrase 9 by stopped-flow CO2 hydration assay

[2] = Permeability of the compound in human Caco2 cells assessed as mass balance in diffusion chamber at 15 uM after 90 mins; type: ADME, cell-based; settings: Caco-2, read-out: permeability
[3] = Degradation half life in human plasma at 5000 ng/mL by UPLC-MS analysis; type: ADME, cell-free
[4] = target: Carbonic anhydrase 14 (Homo sapiens, UniProt Q9ULX7); assay: Inhibition of human carbonic anhydrase 14 by stopped-flow CO2 hydration assay
[5] = target: Carbonic anhydrase 12 (Homo sapiens, UniProt O43570)
Description: Inhibition of human carbonic anhydrase 12 by stopped-flow CO2 hydration assay

[6] = target: Albumin (Homo sapiens, UniProt P02768); assay: Binding affinity to human serum albumin by chromatographic analysis; type: ADME; settings: isolated protein
[7] = Intrinsic clearance in human liver microsomes at 1 uM after 2 to 60 mins by LCMS analysis in absence of NADPH; type: ADME; settings: read-out: CLH
[8] = Intrinsic clearance in human liver microsomes at 1 uM after 2 to 60 mins by LCMS analysis in presence of NADPH; type: ADME; settings: read-out: CLH
[9] = Permeability of the compound in human Caco2 cells assessed as mass balance in diffusion chamber at 20 uM after 90 mins; type: ADME, cell-based; settings: Caco-2, read-out: permeability
[10] = target: Carbonic anhydrase 2 (Homo sapiens, UniProt P00918)
Description: Inhibition of human carbonic anhydrase 2 by stopped-flow CO2 hydration assay

[11] = target: Carbonic anhydrase 1 (Homo sapiens, UniProt P00915)
Description: Inhibition of human carbonic anhydrase 1 by stopped-flow CO2 hydration assay

[12] = Solubility of the compound in HEPES buffer at pH 7.4; type: physicochemical
[13] = Permeability of the compound in human Caco2 cells assessed as mass balance in diffusion chamber at 8 uM after 90 mins; type: ADME, cell-based; settings: Caco-2, read-out: permeability

Chain of Carbonic anhydrase 14 (Q9ULX7 whole entry): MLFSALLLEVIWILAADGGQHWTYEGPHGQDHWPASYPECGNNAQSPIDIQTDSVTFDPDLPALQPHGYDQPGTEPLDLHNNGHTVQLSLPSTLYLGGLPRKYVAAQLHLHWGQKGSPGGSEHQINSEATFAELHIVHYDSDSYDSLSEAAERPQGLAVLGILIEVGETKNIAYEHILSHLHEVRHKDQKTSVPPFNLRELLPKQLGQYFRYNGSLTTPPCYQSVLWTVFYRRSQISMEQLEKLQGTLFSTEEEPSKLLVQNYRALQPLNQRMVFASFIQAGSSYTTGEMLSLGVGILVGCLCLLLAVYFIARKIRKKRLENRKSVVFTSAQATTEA
Chain of Albumin (P02768 whole entry): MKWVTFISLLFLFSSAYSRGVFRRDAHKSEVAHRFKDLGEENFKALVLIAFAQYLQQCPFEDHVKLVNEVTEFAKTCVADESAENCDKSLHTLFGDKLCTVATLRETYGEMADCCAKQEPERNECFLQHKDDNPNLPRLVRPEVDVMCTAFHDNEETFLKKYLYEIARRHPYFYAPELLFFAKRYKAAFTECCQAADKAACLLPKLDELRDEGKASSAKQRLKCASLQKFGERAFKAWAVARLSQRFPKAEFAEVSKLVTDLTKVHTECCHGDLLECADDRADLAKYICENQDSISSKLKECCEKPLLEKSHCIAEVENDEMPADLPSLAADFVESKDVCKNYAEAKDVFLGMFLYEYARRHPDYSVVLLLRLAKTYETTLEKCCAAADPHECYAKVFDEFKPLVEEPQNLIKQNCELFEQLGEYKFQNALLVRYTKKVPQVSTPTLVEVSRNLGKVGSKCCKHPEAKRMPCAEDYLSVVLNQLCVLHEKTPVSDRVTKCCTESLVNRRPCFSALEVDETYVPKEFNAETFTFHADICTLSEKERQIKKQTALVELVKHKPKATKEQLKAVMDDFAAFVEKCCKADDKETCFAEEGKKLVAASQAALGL
Chain of Carbonic anhydrase 12 (O43570 whole entry): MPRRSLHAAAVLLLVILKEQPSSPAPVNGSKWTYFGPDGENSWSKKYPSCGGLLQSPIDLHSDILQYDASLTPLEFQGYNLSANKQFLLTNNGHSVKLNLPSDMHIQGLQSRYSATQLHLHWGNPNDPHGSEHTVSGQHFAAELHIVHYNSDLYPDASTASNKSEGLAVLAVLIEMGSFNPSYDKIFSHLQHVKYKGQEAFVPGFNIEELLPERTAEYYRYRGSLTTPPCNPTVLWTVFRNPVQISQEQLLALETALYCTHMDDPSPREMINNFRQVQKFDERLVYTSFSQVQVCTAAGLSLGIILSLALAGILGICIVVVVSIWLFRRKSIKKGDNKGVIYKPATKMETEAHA
Chain of Carbonic anhydrase 1 (P00915 whole entry): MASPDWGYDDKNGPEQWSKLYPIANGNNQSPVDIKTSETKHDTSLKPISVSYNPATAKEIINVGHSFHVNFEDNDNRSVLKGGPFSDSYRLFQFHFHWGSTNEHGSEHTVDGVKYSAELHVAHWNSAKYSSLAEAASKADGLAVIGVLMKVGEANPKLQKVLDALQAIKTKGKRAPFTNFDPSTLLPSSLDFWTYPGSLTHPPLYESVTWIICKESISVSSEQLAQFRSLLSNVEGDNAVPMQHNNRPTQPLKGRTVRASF

| Ki [1] | Ki [4] | Ki [5] | Ki [10] | Ki [11] | SMILES | other results |
| --- | --- | --- | --- | --- | --- | --- |
| 65.7 nM | – | – | – | – | C#Cc1cccc(S(N)(=O)=O)c1 | – |
| – | 104 nM | 67.1 nM | – | – | CC(=O)OC[C@H]1O[C@@H](n2cc(-c3ccc(S(N)(=O)=O)cc3)nn2)[C@H](OC(C)=O)[C@@H](OC(C)=O)[C@@H]1OC(C)=O | recovery at 1.5 h, 15 µM [2]: 81%; half-life at 5000 ng/mL [3]: 7 min; Activity [6]: 30% |
| – | 50.3 nM | 40.1 nM | – | – | NS(=O)(=O)c1ccc(-c2cn([C@@H]3O[C@H](CO)[C@@H](O)[C@H](O)[C@H]3O)nn2)cc1 | half-life at 5000 ng/mL [3]: > 250 min; microsomal CLint at 1 µM [7]: < 7 µL/min/mg; microsomal CLint at 1 µM [8]: < 7 µL/min/mg; recovery at 1.5 h, 20 µM [9]: 100%; Activity [6]: 13% |
| 54 nM | – | – | – | – | C#Cc1ccc(S(N)(=O)=O)cc1 | – |
| 254 nM | – | – | – | – | CC(C)CC(=O)OC[C@H]1O[C@@H](n2cc(-c3cccc(S(N)(=O)=O)c3)nn2)[C@H](OC(=O)CC(C)C)[C@@H](OC(=O)CC(C)C)[C@H]1OC(=O)CC(C)C | – |
| 800 nM | – | – | – | – | CCCCC(=O)OC[C@H]1O[C@@H](n2cc(-c3cccc(S(N)(=O)=O)c3)nn2)[C@H](OC(=O)CCCC)[C@@H](OC(=O)CCCC)[C@H]1OC(=O)CCCC | – |
| 69.2 nM | – | – | – | – | CCCC(=O)OC[C@H]1O[C@@H](n2cc(-c3cccc(S(N)(=O)=O)c3)nn2)[C@H](OC(=O)CCC)[C@@H](OC(=O)CCC)[C@H]1OC(=O)CCC | – |
| 126 nM | – | – | – | – | CCC(=O)OC[C@H]1O[C@@H](n2cc(-c3cccc(S(N)(=O)=O)c3)nn2)[C@H](OC(=O)CC)[C@@H](OC(=O)CC)[C@H]1OC(=O)CC | – |
| 943 nM | – | – | – | – | CC(=O)OC[C@H]1O[C@@H](n2cc(-c3cccc(S(N)(=O)=O)c3)nn2)[C@H](OC(C)=O)[C@@H](OC(C)=O)[C@H]1OC(C)=O | – |
| 374 nM | 15.9 nM | 23.3 nM | 37.9 nM | 3210 nM | CC(C)CC(=O)OC[C@H]1O[C@@H](n2cc(-c3ccc(S(N)(=O)=O)cc3)nn2)[C@H](OC(=O)CC(C)C)[C@@H](OC(=O)CC(C)C)[C@H]1OC(=O)CC(C)C | – |
| – | 67.3 nM | 31 nM | 73.6 nM | 2130 nM | CCCCC(=O)OC[C@H]1O[C@@H](n2cc(-c3ccc(S(N)(=O)=O)cc3)nn2)[C@H](OC(=O)CCCC)[C@@H](OC(=O)CCCC)[C@H]1OC(=O)CCCC | – |
| – | 35.6 nM | 9.5 nM | 6.9 nM | 257 nM | CCCC(=O)OC[C@H]1O[C@@H](n2cc(-c3ccc(S(N)(=O)=O)cc3)nn2)[C@H](OC(=O)CCC)[C@@H](OC(=O)CCC)[C@H]1OC(=O)CCC | – |
| 5.1 nM | 10.9 nM | 5.4 nM | 8.1 nM | 78.8 nM | CCC(=O)OC[C@H]1O[C@@H](n2cc(-c3ccc(S(N)(=O)=O)cc3)nn2)[C@H](OC(=O)CC)[C@@H](OC(=O)CC)[C@H]1OC(=O)CC | – |
| 724 nM | – | – | – | – | CC(C)CC(=O)OC[C@H]1O[C@@H](n2cc(-c3cccc(S(N)(=O)=O)c3)nn2)[C@H](OC(=O)CC(C)C)[C@@H](OC(=O)CC(C)C)[C@@H]1OC(=O)CC(C)C | – |
| 402 nM | – | – | – | – | CCCCC(=O)OC[C@H]1O[C@@H](n2cc(-c3cccc(S(N)(=O)=O)c3)nn2)[C@H](OC(=O)CCCC)[C@@H](OC(=O)CCCC)[C@@H]1OC(=O)CCCC | – |
| 583 nM | – | – | – | – | CCCC(=O)OC[C@H]1O[C@@H](n2cc(-c3cccc(S(N)(=O)=O)c3)nn2)[C@H](OC(=O)CCC)[C@@H](OC(=O)CCC)[C@@H]1OC(=O)CCC | – |
| 480 nM | – | – | – | – | CC(=O)OC[C@H]1O[C@@H](n2cc(-c3cccc(S(N)(=O)=O)c3)nn2)[C@H](OC(C)=O)[C@@H](OC(C)=O)[C@@H]1OC(C)=O | – |
| 874 nM | – | – | – | – | CCC(=O)OC[C@H]1O[C@@H](n2cc(-c3cccc(S(N)(=O)=O)c3)nn2)[C@H](OC(=O)CC)[C@@H](OC(=O)CC)[C@@H]1OC(=O)CC | – |
| 426 nM | 40.1 nM | 52 nM | 440 nM | 9440 nM | CC(C)CC(=O)OC[C@H]1O[C@@H](n2cc(-c3ccc(S(N)(=O)=O)cc3)nn2)[C@H](OC(=O)CC(C)C)[C@@H](OC(=O)CC(C)C)[C@@H]1OC(=O)CC(C)C | solubility [12]: Insoluble; half-life at 5000 ng/mL [3]: > 250 min; microsomal CLint at 1 µM [7]: < 7 µL/min/mg; microsomal CLint at 1 µM [8]: < 7 µL/min/mg; Activity [6]: > 99% |
| – | 176 nM | 52.7 nM | 573 nM | 9230 nM | CCCCC(=O)OC[C@H]1O[C@@H](n2cc(-c3ccc(S(N)(=O)=O)cc3)nn2)[C@H](OC(=O)CCCC)[C@@H](OC(=O)CCCC)[C@@H]1OC(=O)CCCC | solubility [12]: Insoluble; half-life at 5000 ng/mL [3]: > 250 min; microsomal CLint at 1 µM [7]: < 7 µL/min/mg; microsomal CLint at 1 µM [8]: < 7 µL/min/mg; Activity [6]: > 99% |
| 475 nM | 256 nM | 7.4 nM | 71.1 nM | 2020 nM | CCC(=O)OC[C@H]1O[C@@H](n2cc(-c3ccc(S(N)(=O)=O)cc3)nn2)[C@H](OC(=O)CC)[C@@H](OC(=O)CC)[C@@H]1OC(=O)CC | half-life at 5000 ng/mL [3]: 3 min; recovery at 1.5 h, 8 µM [13]: 47%; Activity [6]: 77% |
| – | 15.8 nM | 9.7 nM | – | – | CC(=O)OC[C@H]1O[C@@H](n2cc(-c3ccc(S(N)(=O)=O)cc3)nn2)[C@H](OC(C)=O)[C@@H](OC(C)=O)[C@H]1OC(C)=O | – |

| SMILES | Ki [1] | Ki [4] | Ki [5] | Ki [10] | Ki [11] | other results |
| --- | --- | --- | --- | --- | --- | --- |
| NS(=O)(=O)c1ccc(-c2cn([C@@H]3O[C@H](CO)[C@H](O)[C@H](O)[C@H]3O)nn2)cc1 | 126 nM | 20.1 nM | 36.3 nM | 6.7 nM | 7950 nM | – |
| NS(=O)(=O)c1cccc(-c2cn([C@@H]3O[C@H](CO)[C@H](O)[C@H](O)[C@H]3O)nn2)c1 | 590 nM | – | – | – | – | – |
| CCCC(=O)OC[C@H]1O[C@@H](n2cc(-c3ccc(S(N)(=O)=O)cc3)nn2)[C@H](OC(=O)CCC)[C@@H](OC(=O)CCC)[C@@H]1OC(=O)CCC | 633 nM | 119 nM | 50.2 nM | 76.3 nM | 1800 nM | solubility [12]: Insoluble; half-life at 5000 ng/mL [3]: 25 min; Activity [6]: 94% |
